Laboratory results: ChEMBL document CHEMBL3352153, “Diastereoselective synthesis of potent antimalarial cis-β-lactam agents through a [2 + 2] cycloaddition of chiral imines with a chiral ketene” (Eur J Med Chem, 2014)

The compounds below were run on Plasmodium falciparum (assay: Antimalarial activity against chloroquine-resistant Plasmodium falciparum K14 infected in human red blood cells after 48 hrs by [3H]hypoxanthine incorporation assay).
Assay type: functional, organism-based

Compound	IC50 [µM]
Cc1cccc([C@@H]2[C@H](O[C@@H]3C[C@H](C)CC[C@H]3C(C)C)C(=O)N2[C@@H](C)c2ccccc2)c1	42
Cc1ccc([C@@H]2[C@H](O[C@@H]3C[C@H](C)CC[C@H]3C(C)C)C(=O)N2[C@@H](C)c2ccccc2)cc1	35
CC(C)[C@@H]1CC[C@@H](C)C[C@H]1O[C@@H]1C(=O)N([C@@H](C)c2ccccc2)[C@@H]1c1ccc([N+](=O)[O-])cc1	27
CC(C)[C@@H]1CC[C@@H](C)C[C@H]1O[C@@H]1C(=O)N([C@@H](C)c2ccccc2)[C@@H]1/C=C/c1ccccc1	> 50
CC(C)[C@@H]1CC[C@@H](C)C[C@H]1O[C@@H]1C(=O)N([C@@H](C)c2ccccc2)[C@@H]1c1ccc(Cl)cc1	33
COc1ccc([C@@H]2[C@H](O[C@@H]3C[C@H](C)CC[C@H]3C(C)C)C(=O)N2[C@@H](C)c2ccccc2)cc1	13
CC(C)[C@@H]1CC[C@@H](C)C[C@H]1O[C@@H]1C(=O)N([C@@H](C)c2ccccc2)[C@@H]1c1ccccc1[N+](=O)[O-]	21
CC(C)[C@@H]1CC[C@@H](C)C[C@H]1O[C@@H]1C(=O)N([C@@H](C)c2ccccc2)[C@@H]1c1ccccc1Cl	36
CC(C)[C@@H]1CC[C@@H](C)C[C@H]1O[C@@H]1C(=O)N([C@@H](C)c2ccccc2)[C@@H]1c1ccc(F)cc1	19
CC(C)[C@@H]1CC[C@@H](C)C[C@H]1O[C@@H]1C(=O)N([C@@H](C)c2ccccc2)[C@@H]1c1ccc(Br)cc1	11
C[C@@H](c1ccccc1)N1C(=O)[C@@H](Oc2ccccc2)[C@H]1c1ccc(Cl)cc1	42
CC(C)[C@@H]1CC[C@@H](C)C[C@H]1O[C@@H]1C(=O)N([C@@H](C)c2ccccc2)[C@@H]1c1ccc2ccccc2c1	10
COc1ccc(N2C(=O)[C@H](O[C@@H]3C[C@H](C)CC[C@H]3C(C)C)[C@@H]2c2ccc(Cl)cc2)cc1	> 50
C[C@@H](c1ccccc1)N1C(=O)[C@H](Oc2ccccc2)[C@@H]1c1ccc(Cl)cc1	42
COc1ccc([C@@H]2[C@H](O[C@@H]3C[C@H](C)CC[C@H]3C(C)C)C(=O)N2[C@@H](C)c2ccccc2)cc1OC	8
COc1ccc(N2C(=O)[C@@H](O[C@@H]3C[C@H](C)CC[C@H]3C(C)C)[C@H]2c2ccc(Cl)cc2)cc1	> 50
COc1cccc([C@@H]2[C@H](O[C@@H]3C[C@H](C)CC[C@H]3C(C)C)C(=O)N2[C@@H](C)c2ccccc2)c1	8
